Experimental data as given in patent publication US5508311A, “Aliphatic propargylamines as selective MAO-B inhibitors and as neuroprotective agents” (University of Saskatchewan, priority 1993, dated 1996).
Counter-ions that a name gives are not always drawn. Like-named read-outs stand apart in the source and are kept apart here. Values belong to the molecule of their own block, whether it stands above or below them.

What was measured:
MAO-A [1] = target: T1, MAO-A (Rattus norvegicus, UniProt P21396); experiment: biochemical; assay type: biochemical
T1 sequence (P21396 1-526): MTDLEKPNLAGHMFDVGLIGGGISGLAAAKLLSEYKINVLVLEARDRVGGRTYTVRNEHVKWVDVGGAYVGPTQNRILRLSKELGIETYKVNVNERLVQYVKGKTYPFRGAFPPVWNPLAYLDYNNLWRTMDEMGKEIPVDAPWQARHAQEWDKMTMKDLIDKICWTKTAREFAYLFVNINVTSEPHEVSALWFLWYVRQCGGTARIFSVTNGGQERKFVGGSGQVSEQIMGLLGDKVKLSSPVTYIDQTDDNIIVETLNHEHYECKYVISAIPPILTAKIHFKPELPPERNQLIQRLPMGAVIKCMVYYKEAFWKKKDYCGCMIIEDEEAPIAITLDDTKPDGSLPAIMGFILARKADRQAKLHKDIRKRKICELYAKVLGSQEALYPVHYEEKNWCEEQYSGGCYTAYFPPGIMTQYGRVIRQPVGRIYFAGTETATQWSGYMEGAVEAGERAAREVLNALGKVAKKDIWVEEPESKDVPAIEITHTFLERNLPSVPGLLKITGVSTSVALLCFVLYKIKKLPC
Description: (§1) The aliphatic propargylamine inhibitors (from 1×10^-10 M to 1×10^-4 M) were preincubated with the MAO for 20 min. at ambient room temperature and then the residual enzyme activities were determined by addition of the substrates, followed by further incubation at 37° C. for 30 min. The enzymatic reactions were terminated by the addition of citric acid and the aldehyde products were extracted with toluene: ethyl acetate (1:1, v/v) and the radio-activities assessed in a scintillation counter.

MAO-B [2] = target: T2, MAO-B (Rattus norvegicus, UniProt P19643); experiment: biochemical; assay type: biochemical
T2 sequence (P19643 1-520): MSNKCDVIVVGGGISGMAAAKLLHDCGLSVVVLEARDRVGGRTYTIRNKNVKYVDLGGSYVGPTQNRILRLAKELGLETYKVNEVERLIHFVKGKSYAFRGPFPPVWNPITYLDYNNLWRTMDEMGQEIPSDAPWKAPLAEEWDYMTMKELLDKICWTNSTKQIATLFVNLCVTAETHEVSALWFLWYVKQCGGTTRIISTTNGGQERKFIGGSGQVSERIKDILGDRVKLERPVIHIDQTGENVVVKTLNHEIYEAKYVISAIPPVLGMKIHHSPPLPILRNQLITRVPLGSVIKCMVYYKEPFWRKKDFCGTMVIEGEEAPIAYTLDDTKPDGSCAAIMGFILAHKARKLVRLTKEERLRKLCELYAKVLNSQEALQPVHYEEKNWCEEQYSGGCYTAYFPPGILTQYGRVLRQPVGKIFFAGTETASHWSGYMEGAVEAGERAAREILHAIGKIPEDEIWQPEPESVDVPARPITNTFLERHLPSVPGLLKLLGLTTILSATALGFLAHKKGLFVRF
Description: as §1

MAO-A [3] = target: T3, MAO-A (Mus musculus, UniProt Q64133); experiment: in vivo; conditions: ip, read-out: 5-HT ID50
T3 construct: MAO activities in the mouse brain after; from tissue
T3 sequence (Q64133 1-526): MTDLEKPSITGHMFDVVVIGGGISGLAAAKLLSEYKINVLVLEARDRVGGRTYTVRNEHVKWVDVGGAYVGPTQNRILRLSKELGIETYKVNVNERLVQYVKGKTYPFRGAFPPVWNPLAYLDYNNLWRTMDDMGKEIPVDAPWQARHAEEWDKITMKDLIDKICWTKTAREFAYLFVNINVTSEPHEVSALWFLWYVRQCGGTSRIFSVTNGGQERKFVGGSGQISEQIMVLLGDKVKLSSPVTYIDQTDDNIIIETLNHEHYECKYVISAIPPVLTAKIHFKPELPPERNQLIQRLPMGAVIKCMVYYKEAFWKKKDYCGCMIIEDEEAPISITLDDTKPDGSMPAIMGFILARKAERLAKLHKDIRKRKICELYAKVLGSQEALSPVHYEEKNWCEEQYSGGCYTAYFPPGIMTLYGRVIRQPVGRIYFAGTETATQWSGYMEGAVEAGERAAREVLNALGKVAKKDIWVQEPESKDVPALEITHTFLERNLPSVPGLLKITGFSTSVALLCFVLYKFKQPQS
Description: (§2) Albino Swiss mice were used in this study. The animals were injected intraperitoneally with different doses of the aliphatic propargylamines in 100 μL saline.
(§3) 0.5, 1, 2, 5, 10, 20, 50, 100 mg/Kg. Striata were dissected from the brai
(§4) two hours after i.p. administration of the drugs. MAOA and MAOB activitie
(§5) were determined immediately. The values were estimated from doseresponse

MAO-B [4] = target: T4, MAO-B (Mus musculus, UniProt Q8BW75); experiment: MAO-B activity in the mouse brain after oral administration (substrate PE); assay type: in vivo; conditions: for Relative activity PE: oral 10 mg/Kg, PE (1.9 × 10^-5 M), mean ± standard error, saline = 100
T4 construct: MAO activities in the mouse brain after; from tissue
T4 sequence (Q8BW75 1-520): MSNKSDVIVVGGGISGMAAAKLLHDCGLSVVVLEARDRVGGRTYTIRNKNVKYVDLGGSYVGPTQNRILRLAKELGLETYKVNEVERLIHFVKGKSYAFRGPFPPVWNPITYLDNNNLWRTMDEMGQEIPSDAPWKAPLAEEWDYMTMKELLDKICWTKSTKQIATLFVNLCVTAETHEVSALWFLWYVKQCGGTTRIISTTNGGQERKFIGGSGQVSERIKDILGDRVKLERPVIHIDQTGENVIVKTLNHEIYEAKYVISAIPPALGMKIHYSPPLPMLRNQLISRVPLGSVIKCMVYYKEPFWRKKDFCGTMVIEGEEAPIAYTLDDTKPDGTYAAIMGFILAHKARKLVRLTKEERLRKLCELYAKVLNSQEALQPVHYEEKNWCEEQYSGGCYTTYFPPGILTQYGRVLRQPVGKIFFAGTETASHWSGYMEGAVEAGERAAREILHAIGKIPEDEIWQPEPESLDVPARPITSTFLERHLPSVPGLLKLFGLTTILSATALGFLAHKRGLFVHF
Description: (§6) Table 3 indicates the MAO activities in the mouse brain following oral administration of the aliphatic propargylamines.
(§7) of each compound. Striata were dissected from the brain two hours after
(§8) the administration of the drugs. MAOA and MAOB activities were determined
Striata were dissected from the brain two
hours after oral administration of the drugs. MAOB activities were then
determined immediately. The values were estimated from doseresponse

MAO-B [5] = target: T4, MAO-B; experiment: in vivo; assay type: in vivo; conditions: for ED50: read-out: PE ID50; for Ratio MAO-A/MAO-B: 120 min
Description: as §2, §3, §4, §5

MAO-A [6] = target: T3, MAO-A; assay type: in vivo
Description: as §6, §7, §8

monoamine oxidase = experiment: Inhibition of rat liver monoamine oxidase deamination of dopamine (DA, mixed-type MAO A and B substrate) in vitro; assay type: biochemical; conditions: substrate DA (5 × 10^-4 M), average of at least 3 independent experiments
Description: as §1

[7] = substrate 5-HT (5 × 10^-4 M), rat liver MAO, in vitro, average of at least 3 independent experiments
[8] = 2 hours after administration, 5-HT 5 × 10^-4 M, estimated from dose response curves
[9] = ID50 i.p. in mice versus IC50 in vitro
[10] = mouse, ip, 2 hours after administration, […], estimated from dose response curves
[11] = oral 10 mg/Kg, 2 hours, 5-HT (5 × 10^-4 M), mean ± standard error, saline = 100
[12] = substrate PE (1.9 × 10^-5 M), rat liver MAO, in vitro, average of at least 3 independent experiments

SMILES: C#CCN(C)CCCCCl.Cl [Cl-1-BuMP, N-(4-Chloro-1-butyl)-N-methylpropargylamine-HCl]
- IC50 (MAO-A [1]; [7]): > 100000 nM
- IC50 (MAO-B [2]; […], rat liver MAO, in vitro, average of at least 3 independent experiments, read-out: PE IC50): 10000 nM
- Ratio MAO-A/MAO-B (MAO-B [2]; ratio of IC50 values, in vitro): > 10

SMILES: C#CCN(CC)CCCC.O=C(O)C(=O)O [Example 1-BuEP, N-(1-Butyl)-N-ethylpropargylamine oxalate salt]
- 5-HT IC50 (MAO-A [1]; [7]): inactive
- PE IC50 (MAO-B [2]): inactive

SMILES: C#CCN(C)CCCCCCC.Cl [Example 1-HMP, N-(1-Heptyl)-N-methylpropargylamine hydrochloride]
- ED50 (MAO-A [3]; [8]): 100 mg/kg
- Relative activity PE (MAO-B [4]; 2 hours): 118 ± 14%
- IC50 (MAO-A [1]; [7]): 40000 nM
- Ratio MAO-A/MAO-B (MAO-B [2]; ratio of IC50 values, in vitro): 20
- IC50 (MAO-B [2]; read-out: PE IC50): 2000 nM
- MAO-B ID50 (mg/Kg) / IC50 (1 × 10^-6 M) (MAO-B [5]; [9]): 7.5 (mg/Kg)/(1 × 10^-6 M)
- ED50 (MAO-B [5]; [10]): 15 mg/kg
- Ratio MAO-A/MAO-B (MAO-B [5]; ratio of ID50 values, i.p.): 7
- Relative activity 5-HT (MAO-A [6]; [11]): 123 ± 16%

- 5-HT IC50 (MAO-A [1]; [7]): inactive
- PE IC50 (MAO-B [2]; [12]): inactive
SMILES: C#CCN(CC)C(C)CC (centres unmarked) [Example 2-BuEP, N-(2-Butyl)-N-ethylpropargylamine hydrochloric salt]

SMILES: C#CCNC(C)CC.Cl (centres unmarked) [Example 2-BuPP, N-(2-Butyl)propargylamine hydrochloride salt]
- 5-HT IC50 (MAO-A [1]; [7]): inactive
- PE IC50 (MAO-B [2]): inactive

SMILES: C#CCN(C)C(C)CCCCCCCC.Cl (centres unmarked) [Example 2-DMP, N-(2-Decyl)-N-methylpropargylamine hydrochloride]
- ED50 (MAO-A [3]; [8]): 35 mg/kg
- effectiveness in blocking MAO-B activity in vivo after acute oral administration (in words) (MAO-B [4]; mouse, oral): less potent at inhibiting MAO-B activity in vivo after acute administration
- ED50 (MAO-B [4]; mouse, oral, 2 hours, average of 5 animals per dose, estimated from dose response curves, read-out: Inhibition of MAO-B activity, dose response (ID50)): 50 mg/kg
- Relative activity PE (MAO-B [4]; 2 hours): 104 ± 7%
- IC50 (MAO-A [1]; [7]): 4000 nM
- Ratio MAO-A/MAO-B (MAO-B [2]; ratio of IC50 values, in vitro): 50
- IC50 (MAO-B [2]; read-out: PE IC50): 200 nM
- IC50 (monoamine oxidase): 200 nM
- MAO-B ID50 (mg/Kg) / IC50 (1 × 10^-6 M) (MAO-B [5]; [9]): 25 (mg/Kg)/(1 × 10^-6 M)
- ED50 (MAO-B [5]; [10]): 5 mg/kg
- Ratio MAO-A/MAO-B (MAO-B [5]; ratio of ID50 values, i.p.): 7
- Relative activity 5-HT (MAO-A [6]; [11]): 97 ± 8%

SMILES: C#CCN(C)C(C)CCCCCCCCCC.Cl (centres unmarked) [Example 2-DdMP, N-(2-dodecyl)-N-methylpropargylamine-HCl]
- ED50 (MAO-A [3]; 2 h): 60 mg/kg
- effectiveness in blocking MAO-B activity in vivo after acute oral administration (in words) (MAO-B [4]; mouse, oral): less potent at inhibiting MAO-B activity in vivo after acute administration
- Relative activity PE (MAO-B [4]; 2 hours): 64 ± 8%
- IC50 (MAO-A [1]; read-out: 5-HT IC50): 2000 nM
- Ratio MAO-A/MAO-B (MAO-B [2]; rat, liver mitochondrial membranes): 50
- IC50 (MAO-B [2]; [12]): 40 nM
- IC50 (monoamine oxidase): 300 nM
- MAO-B ID50 (mg/Kg) / IC50 (1 × 10^-6 M) (MAO-B [5]; mouse, in vivo, ip): 100
- Ratio MAO-A/MAO-B (MAO-B [5]; mouse, in vivo, ip): 15
- ED50 (MAO-B [5]; mouse, ip, 2 h): 4 mg/kg
- Relative activity 5-HT (MAO-A [6]; mouse, in vivo, po, 10 mg/kg): 107 ± 14
